For assay [1], the system named is S. aureus Smith mutant containing the S486L mutation in RpoB. In words: Mouse septicemia model, S. aureus Smith RpoB S486L. Format: in vivo. Particulars: 1.4 × 10^7 CFU/mouse, three days. Here is the method:
(§1) Antimicrobial compounds may also be screened in vivo using a mouse septicemia model. In one particular example, mice were inoculated with an S. aureus Smith strain (Weiss) encoding a mutated microbial polypeptide (e.g., a mutated RpoB). Compounds were administered either IV or orally 30 minutes following inoculation, and observations was continued for three days. Compounds that promoted the survival of inoculated mice were identified as being compounds that are effective against antibiotic-resistant forms of S. aureus.
(§2) This was accounted for by the increased MIC against these mutant strains compared with the wild-type strain (MICs of 2 μg/ml and 0.004-0.008 μg/ml, respectively).

For assay [2], the system named is S. aureus Smith containing the RpoB H481Y alteration. The experiment in a line: Mouse septicemia model, S. aureus Smith RpoB H481Y. Format: in vivo. Particulars: mouse, 1.1 × 10^7 CFU/mouse, three days. Here is the method:
as §1, §2

Assay [3] deals with S. aureus Smith mutant containing the L466S mutation in RpoB. In words: Mouse septicemia model, S. aureus Smith RpoB L466S. Particulars: 1.1 × 10^7 CFU/mouse, three days. Format: in vivo. Here is the method: as §1, §2
Assay [4] deals with S. aureus RpoB mutant D471G. The experiment in a line: MIC, S. aureus RpoB D471G mutant. Format: cell-based. Particulars: Staphylococcus aureus; RpoB mutation D471G; strain backgrounds 1, 2. The text has this:
(§3) S. aureus is one of the most frequently encountered Gram-positive pathogens. Drug resistance-conferring mutations typically occur within the β subunit of RNA polymerase (RpoB mutations), in the rifampin-binding site. Mutants of S. aureus were isolated by inoculating a culture of S. aureus ATCC strain 29213 (standard susceptibility testing strain) into medium containing rifampin or rifalazil; by inoculating S. aureus ATCC strain 29213 into medium containing chemical derivatives of rifamycin (NCEs); by inoculating S. aureus Smith, a variant optimally adapted to colonizing and causing disease in the mouse septicemia model, into medium containing rifampin; and by using the Ian Chopra collection, the parent strain of which is S. aureus 8325-4 and described previously by Oliva et al. (Antimicrob. Agents Chemother. 45:532-9, 2001). […]
(§4) Having identified these mutants, the minimum inhibitory concentrations (MIC) of a number of rifamycin derivatives were determined in microtiter trays by inoculating 1-8×10^4 microorganisms in 100 μl of Mueller-Hinton Broth (cation adjusted) containing the indicated compound (Table 3) (National Committee for Clinical Laboratory Standards, Methods for Dilution Antimicrobial Susceptibility Tests for Bacteria That Grow Aerobically-Fourth Edition: Approved Standard M7-A4. NCCLS, Villanova, Pa., 1997). […]

Assay [5] has as its system S. aureus RpoB mutant L466S. In words: MIC, S. aureus RpoB L466S mutant. It is filed as cell-based. Particulars: Staphylococcus aureus; RpoB mutation L466S; strain backgrounds 1, 2, 4.
Text: as §3, §4

Assay [6] has as its system S. aureus RpoB mutant D471V. In words: MIC, S. aureus RpoB D471V mutant. It is filed as cell-based. Particulars: Staphylococcus aureus; RpoB mutation D471V; strain background 3.
Text: as §3, §4

Assay [7] has as its system S. aureus RpoB mutant S486L. In words: MIC, S. aureus RpoB S486L mutant. It is filed as cell-based. Particulars: Staphylococcus aureus; RpoB mutation S486L; strain backgrounds 1, 2, 4.
Text: as §3, §4

Assay [8] has as its system S. aureus RpoB mutant Q468K. In words: MIC, S. aureus RpoB Q468K mutant. Particulars: Staphylococcus aureus; RpoB mutation Q468K; strain background 1. It is filed as cell-based.
Text: as §3, §4

The test system of assay [9] is S. aureus RpoB mutant I527P. In words: MIC, S. aureus RpoB I527P mutant. Format: cell-based. Particulars: Staphylococcus aureus; RpoB mutation I527P; strain background 1.
Text: as §3, §4

Assay [10] concerns S. aureus RpoB mutant D471Y. In words: MIC, S. aureus RpoB D471Y mutant. It is filed as cell-based. Particulars: Staphylococcus aureus; RpoB mutation D471Y; strain backgrounds 1, 2, 4.
Text: as §3, §4

The test system of assay [11] is S. aureus 29213. The experiment in a line: Mutant score test (resistance development on agar). It is filed as cell-based. Particulars: 10^9 cells of S. aureus 29213 on agar plate with 1 μg/ml compound. Here is the method: A further confirmation of the validity of MIC testing of the mutant panel was provided by our mutant score test. Using this strategy, compounds were individually tested for resistance development by inoculating 10^9 cells of S. aureus 29213, a standard susceptibility strain, onto a large agar plate (150 mm) containing Mueller Hinton Agar as well as 1 μg/ml of the test compound. The presence of rifalazil or rifampin in these plates generally allowed for the growth of ˜50 colonies, all colonies representing a mutant sub-population or populations in the culture. […] The MICs of NCEs on agar plates were lower than MICs determined by growth in liquid broth. […] This correlation provided additional confidence in the value and ranking of compounds by MIC testing of the mutant panel, as compounds having a score of 2 have tracked with strong activity in MIC testing against resistant strains, as indicated in Table 3.

For assay [12], the system named is S. aureus RpoB mutant H481N. In words: MIC, S. aureus RpoB H481N mutant. Format: cell-based. Particulars: Staphylococcus aureus; RpoB mutation H481N; strain backgrounds 1, 4.
Text: as §3, §4

Assay [13] concerns S. aureus RpoB mutant H481D. The experiment in a line: MIC, S. aureus RpoB H481D mutant. It is filed as cell-based. Particulars: Staphylococcus aureus; RpoB mutation H481D; strain backgrounds 1, 4.
Text: as §3, §4

For assay [14], the system named is S. aureus RpoB mutant H481R. The experiment in a line: MIC, S. aureus RpoB H481R mutant. Particulars: Staphylococcus aureus; RpoB mutation H481R; strain background 3. Format: cell-based.
Text: as §3, §4

For assay [15], the system named is S. aureus RpoB mutant S464P. The experiment in a line: MIC, S. aureus RpoB S464P mutant. It is filed as cell-based. Particulars: Staphylococcus aureus; RpoB mutation S464P; strain backgrounds 1, 2, 4.
Text: as §3, §4

In assay [16] the test system is S. aureus RpoB mutant D471E. In words: MIC, S. aureus RpoB D471E mutant. It is filed as cell-based. Particulars: Staphylococcus aureus; RpoB mutation D471E; strain background 4.
Text: as §3, §4

Assay [17] deals with Wild-type parent strains (S. aureus 29213, Smith, W59536, 8325-4). The experiment in a line: MIC, wild-type parent S. aureus strains. Format: cell-based. The source says:
S. aureus is one of the most frequently encountered Gram-positive pathogens. Drug resistance-conferring mutations typically occur within the β subunit of RNA polymerase (RpoB mutations), in the rifampin-binding site. Mutants of S. aureus were isolated by inoculating a culture of S. aureus ATCC strain 29213 (standard susceptibility testing strain) into medium containing rifampin or rifalazil; by inoculating S. aureus ATCC strain 29213 into medium containing chemical derivatives of rifamycin (NCEs); by inoculating S. aureus Smith, a variant optimally adapted to colonizing and causing disease in the mouse septicemia model, into medium containing rifampin; and by using the Ian Chopra collection, the parent strain of which is S. aureus 8325-4 and described previously by Oliva et al. (Antimicrob. Agents Chemother. 45:532-9, 2001). Mutants resistant to rifampin, rifalazil, or NCEs were selected either on drug-containing plates or in liquid culture.
Having identified these mutants, the minimum inhibitory concentrations (MIC) of a number of rifamycin derivatives were determined in microtiter trays by inoculating 1-8×10^4 microorganisms in 100 μl of Mueller-Hinton Broth (cation adjusted) containing the indicated compound (Table 3) (National Committee for Clinical Laboratory Standards, Methods for Dilution Antimicrobial Susceptibility Tests for Bacteria That Grow Aerobically-Fourth Edition: Approved Standard M7-A4. NCCLS, Villanova, Pa., 1997). These cultures were incubated for 16-20 hours at 35° C. Based on our results, the most important mutants (conferring the strongest resistance) were identified for more extensive testing of NCEs. These mutants were H481Y, Q468K, S486L, D471Y, S464P, A477D, and H481D. […] An exception to the uniformity of the measure of resistance is provided by the mutants D471Y and S464P, which together have lower MICs for some of the compounds compared to the rest. […]

The subject of assay [18] is S. aureus RpoB mutant R484H. In words: MIC, S. aureus RpoB R484H mutant. It is filed as cell-based. Particulars: Staphylococcus aureus; RpoB mutation R484H; strain backgrounds 1, 3.
Text: as §3, §4

Assay [19] concerns S. aureus RpoB mutant A477V. The experiment in a line: MIC, S. aureus RpoB A477V mutant. It is filed as cell-based. Particulars: Staphylococcus aureus; RpoB mutation A477V; strain backgrounds 1, 2.
Text: as §3, §4

Assay [20] concerns S. aureus RpoB mutant R484C. The experiment in a line: MIC, S. aureus RpoB R484C mutant. Format: cell-based. Particulars: Staphylococcus aureus; RpoB mutation R484C; strain background 3.
Text: as §3, §4

For assay [21], the system named is S. aureus RpoB mutant Q137L. The experiment in a line: MIC, S. aureus RpoB Q137L mutant. It is filed as cell-based. Particulars: Staphylococcus aureus; RpoB mutation Q137L; strain backgrounds 1, 4.
Text: as §3, §4

The subject of assay [22] is S. aureus RpoB mutant R484S. The experiment in a line: MIC, S. aureus RpoB R484S mutant. Particulars: Staphylococcus aureus; RpoB mutation R484S; strain background 1. It is filed as cell-based.
Text: as §3, §4

Assay [23] relates to S. aureus RpoB mutant A477D. The experiment in a line: MIC, S. aureus RpoB A477D mutant. Format: cell-based. Particulars: Staphylococcus aureus; RpoB mutation A477D; strain backgrounds 1, 4.
Text: as §3, §4

The test system of assay [24] is S. aureus RpoB mutant H481Y. The experiment in a line: MIC, S. aureus RpoB H481Y mutant. It is filed as cell-based. Particulars: Staphylococcus aureus; RpoB mutation H481Y; strain backgrounds 1, 2, 3.
Text: as §3, §4

The test system of assay [25] is S. aureus RpoB mutant Q468R. In words: MIC, S. aureus RpoB Q468R mutant. It is filed as cell-based. Particulars: Staphylococcus aureus; RpoB mutation Q468R; strain background 1.
Text: as §3, §4

The subject of assay [26] is S. aureus RpoB mutant I527M. In words: MIC, S. aureus RpoB I527M mutant. Particulars: Staphylococcus aureus; RpoB mutation I527M; strain background 1. Format: cell-based.
Text: as §3, §4

SMILES strings stand for the structures. ≈ marks a conversion by molar mass, not a printed value. Where two headings read alike, the source gives them in different places.

Take `O=C(O)c1cn(C2CC2)c2cc(N3CCNCC3)c(F)cc2c1=O` [Ciprofloxacin]: the “Survival (n = 5)” value in [1] (IV 0.6 mg/kg) is reported as 1; in assay [1] (IV 2.0 mg/kg), 3; in [1] (IV 6.0 mg/kg), 5; in assay [2] (IV 0.6 mg/kg), 2; in assay [2] (IV 2.0 mg/kg) it was 5; in [2] (IV 6.0 mg/kg), 4. Further, the “Survival (n = 5)” value is reported as 1 in assay [3] (IV 0.6 mg/kg), 4 in assay [3] (IV 2.0 mg/kg) and 5 in [3] (IV 6.0 mg/kg).

As for `CO[C@H]1/C=C/O[C@@]2(C)Oc3c(C)c(O)c4c(=O)c(c5oc6cc(N7CCN(CC(C)C)CC7)cc(O)c6nc-5c4c3C2=O)NC(=O)/C(C)=C\C=C\[C@H](C)[C@H](O)[C@@H](C)[C@@H](O)[C@@H](C)[C@H](OC(C)=O)[C@@H]1C` [Rfz, rifalazil], the minimum inhibitory concentration (MIC) (usually the smallest concentration in the dilution series that meets the test's criterion for growth inhibition) is more than 8 µg/mL in [4]; 0.016 µg/mL (≈ 0.017 µM) in assay [5]; 2 µg/mL (≈ 2.13 µM) in assay [6]; more than 8 µg/mL in assay [7]; more than 8 µg/mL in assay [8]; 1 µg/mL (≈ 1.06 µM) in assay [9]. Also, the minimum inhibitory concentration (MIC) in [10] is 0.25 µg/mL (≈ 0.266 µM); in assay [12], 0.125 µg/mL (≈ 0.133 µM); in assay [13] it was more than 8 µg/mL; in assay [14] it was more than 8 µg/mL; in assay [15] it was 1 µg/mL (≈ 1.06 µM); in [16], less than 0.031 µg/mL. Also, the MIC in assay [17] (Mutation None: wild-type parent strains) is 0.015 µg/mL (≈ 0.0159 µM); in assay [17] (Staphylococcus aureus, strain not stated, matches wild-type value of Table 2, read-out: MIC), 0.015 µg/mL (≈ 0.0159 µM); in [18] it was 8 µg/mL (≈ 8.5 µM); in assay [19], 0.063 µg/mL (≈ 0.0669 µM); in [20], 0.5 µg/mL (≈ 0.531 µM); in assay [21], less than 0.031 µg/mL. For the same compound, the MIC in assay [22] is 0.5 µg/mL (≈ 0.531 µM); in assay [23], 2 to 4 µg/mL (≈ 2.13 to 4.25 µM); in assay [24], more than 8 µg/mL; in assay [25], more than 8 µg/mL; in assay [26] it was 0.063 µg/mL (≈ 0.0669 µM). In addition, the “growth of mutant colonies on plate” value in assay [11] is reported as approximately 50 colonies.

For the origin of these results see US20050282242A1, “Screening assays for antimicrobial agents” (priority 2004, published 2005).
